Assay results taken from patent publication US9096593B2, “Compounds and methods for kinase modulation, and indications therefor” (Plexxikon Inc., priority 2009, dated 2015).
Like-named read-outs stand apart in the source and are kept apart here.

Test system: MV-4-11 cells
Assay: MV-4-11 cell proliferation assay (ATPlite)
Conditions: 3 days, read-out: Cell based (IC50 μM) MV-4-11 (Flt-3)
Experimental: Compounds are assessed in a variety of cell based assays. For example BCR-FMS/BaF3, BCR-KIT/BaF3, M-NFS-60, M-07e, and BAC1.2F5 cell proliferation assays are used to assess inhibitory activity of Fms or Kit and MV-4-11 cell proliferation assay is used to assess inhibitory activity in Flt-3. Reagent and assay conditions are as follows: • BCR-FMS/BaF3 and BCR-KIT/BaF3 cells: • Maintained in RPMI containing 10% FBS, 1% PenStrep, 1% NEAA, and 1% L-Glutamine, supplemented with 1 mg/mL G418 and 5% WEHI-CM (or recombinant murine IL-3). • Confluent cells are split 1:50 to 1:100 every 3-4 days. • M-NFS-60 cells (ATCC #CRL-1838): • Maintained in RPMI containing 10% FBS, 1% Hepes, 1% NaPyruvate, and 0.45% Glucose, supplemented with 62 ng/mL murine M-CSF. • Confluent cells are split 1:20 every 3-4 days. • M-07e cells (DSMZ #ACC 104): • Maintained in IMDM containing 10% FBS, supplemented with either 200 ng/mL human SCF or […] SCF (R&D Systems 255-SC). • Confluent cells are split 1:5 to 1:10 every 3-4 days. • BAC1.2F5 cells: • Maintained in Alpha-MEM containing 10% Newborn Calf Serum (Invitrogen #26010-074) supplemented with 36 ng/mL murine M-CSF. • Confluent cells are split 1:4 every 3-4 days. • MV-4-11 cells: • Maintained in Iscove's Modified Dulbecco's Medium containing 10% FBS. • Confluent cells are split 1:4 every 3-4 days. On day 1, cells are counted, then centrifuged in a conical tube for 5 minutes at 1000 rpm. The supernatant is removed and cells are re-suspended as follows: • BCR-FMS/BaF3 and BCR-KIT/BaF3: resuspend in growth media+1 mg/mL G418 (without WEHI/IL-3) to 2×10^5 cells/mL. • M-NFS-60: resuspend in growth media +62 ng/mL murine M-CSF to 5×10^5 cells/mL. • M-07e: resuspend in growth media +200 ng/mL human SCF to 5×10^5 cells/mL. • BAC1.2F5: resuspend in growth media +36 ng/mL murine M-CSF to 1.4×10^5 cells/mL. • MV-4-11: resuspend in growth media +10% FBS to 5×10^5 cells/mL. The cells are plated (50 μL) in each well of a 96-well dish (Corning 3610) and incubated at 37° C. in 5% CO2 overnight, cells plated to a final concentration of cells as follows: • BCR-FMS/BaF3 and BCR-KIT/BaF3: 10,000 cells per well. • M-NFS-60: 25,000 cells per well. • M-07e: 25,000 cells per well. • BAC1.2F5: 7,000 cells per well. • MV-4-11: 25,000 cells per well. On day 2, compound at a maximum concentration of 5 mM is serially diluted 1:3 for a total of 8 point titration with DMSO as a control. A 1 μL aliquot of each dilution point is added to 249 μL growth media and 50 μL is added to a well containing cells, providing 10 μM compound for the maximum concentration point. The cells are incubated for 3 days at 37° C. in 5% CO2. On day 5, ATPlite 1 step Luminescence Assay System (Perkin Elmer #6016739) is brought to room temperature along with the cell cultures. ATPlite is added to each well as follows: • BCR-FMS/BaF3 and BCR-KIT/BaF3: 25 μL per well. • M-NFS-60: 25 μL per well. • M-07c: 40 μL per well. • BAC1.2F5: 50 μL per well. • MV-4-11: 40 μL per well. The cells are incubated at room temperature for 10 minutes, then luminescence is read on Safire reader. The measured luminescence correlates directly with cell number, such that the reading as a function of compound concentration is used to determine the IC50 value.

Structure (SMILES)	IC50 (Homo sapiens, MV4-11, 72 h) [µM]	IC50 [µM]
Fc1nc(NCc2ccc(Cl)cn2)ccc1Cc1c[nH]c2ncccc12 [Compound P-2044, (5-Chloro-pyridin-2-ylmethyl)-[6-fluoro-5-(1H-pyrrolo[2,3-b]pyridin-3-ylmethyl)-pyridin-2-yl]-amine]	< 0.1	
COc1cnc2[nH]cc(Cc3ccc(NCc4ccc(OC)nc4)nc3F)c2c1 [Compound P-2030, [6-Fluoro-5-(5-methoxy-1H-pyrrolo[2,3-b]pyridin-3-ylmethyl)-pyridin-2-yl]-(6-methoxy-pyridin-3-ylmethyl)-amine]	< 0.1	
COc1ccnc2[nH]cc(Cc3ccc(NCc4ccc(Cl)cc4)nc3F)c12 [Compound P-2037, (4-Chloro-benzyl)-[6-fluoro-5-(4-methoxy-1H-pyrrolo[2,3-b]pyridin-3-ylmethyl)-pyridin-2-yl]-amine]	> 0.1	
Clc1cnc2[nH]cc(Cc3ccc(NCc4ccc(Cl)nc4)nc3)c2c1 [Compound P-2003]		> 0.1
COc1cnc2[nH]cc(Cc3ccc(NCc4ccccc4Cl)nc3F)c2c1 [Compound P-2034, (2-chloro-benzyl)-[6-fluoro-5-(5-methoxy-1H-pyrrolo[2,3-b]pyridin-3-ylmethyl)-pyridin-2-yl]-amine]	> 0.1	
COc1ccc(CNc2ncc(Cc3c[nH]c4ncc(C)cc34)cn2)cn1 [Compound P-2057, (6-Methoxy-pyridin-3-ylmethyl)-[5-(5-methyl-1H-pyrrolo[2,3-b]pyridin-3-ylmethyl)-pyrimidin-2-yl]-amine]	< 0.1	
COc1cnc2[nH]cc(Cc3ccc(NCc4ccc(Cl)cc4)nc3F)c2c1 [Compound P-2032, (4-Chloro-benzyl)-[6-fluoro-5-(5-methoxy-1H-pyrrolo[2,3-b]pyridin-3-ylmethyl)-pyridin-2-yl]-amine]	< 0.1	
COc1ccc(CNc2ccc(Cc3c[nH]c4ncc(C)cc34)c(F)n2)cn1 [Compound P-2029, [6-Fluoro-5-(5-methyl-1H-pyrrolo[2,3-b]pyridin-3-ylmethyl)-pyridin-2-yl]-(6-methoxy-pyridin-3-ylmethyl)-amine]	< 0.1	
COc1ncc(CNc2ccc(Cc3c[nH]c4ncc(Cl)cc34)c(F)n2)cc1F [Compound P-2165, [5-(5-Chloro-1H-pyrrolo[2,3-b]pyridin-3-ylmethyl)-6-fluoro-pyridin-2-yl]-(5-fluoro-6-methoxy-pyridin-3-ylmethyl)-amine]	> 0.1	
COc1ccc(CNc2ncc(Cc3c[nH]c4ncc(Cl)cc34)cn2)cn1 [Compound P-2038, [5-(5-Chloro-1H-pyrrolo[2,3-b]pyridin-3-ylmethyl)-pyrimidin-2-yl]-(6-methoxy-pyridin-3-ylmethyl)-amine]	< 0.1	
Cc1cnc2[nH]cc(Cc3ccc(NCc4ccc(C(F)(F)F)nc4)nc3F)c2c1 [Compound P-2031, [6-Fluoro-5-(5-methyl-1H-pyrrolo[2,3-b]pyridin-3-ylmethyl)-pyridin-2-yl]-(6-trifluoromethyl-pyridin-3-ylmethyl)-amine]	< 0.1	
